From publication PMC9230136 (Pharmaceutics, 2022)
Like-named read-outs stand apart in the source and are kept apart here.

Experiments:
A549 [1] = settings: cited from earlier work
tubulin = settings: cited from earlier work
HeLa [2] = settings: cited from earlier work
HT-29 = experiment: Antiproliferative assay (resazurin, 72 h); type: cell-based, human; settings: mean ± SE, 72 h
Protocol: (§1) Colon adenocarcinoma (HT-29) and T-cell leukemia (Jurkat) cells were grown in RPMI-1640 medium (Gibco, Milano, Italy). Promyelocytic leukemia cells (HL-60), non-small cell lung carcinoma (A549), cervix carcinoma (HeLa) and breast adenocarcinoma (MDA-MB-231) cells were grown in DMEM medium (Gibco, Milano, Italy). Both media were supplemented with 115 units/mL of penicillin G (Gibco, Milano, Italy), 115 μg/mL of streptomycin (Invitrogen, Milano, Italy) and 10% fetal bovine serum (Invitrogen, Milano, Italy). All the cell lines used were purchased from the American Type Culture Collection (ATCC, Manassas, VA, USA). Stock solutions (10 mM) of the compounds were obtained by dissolving them in DMSO.
(§2) The cells were seeded in 96-well plates at the appropriate density for each cell line. After 24 h, the cells were treated by performing serial 5-fold dilutions of the tested compounds starting from a concentration of 10 μM. All experimental conditions were tested in triplicate for statistical analysis. The plates were incubated for 72 h at 37 °C in a humidified 5% CO2 atmosphere. At the end of the incubation period, 10 μL of 100 μg/mL resazurin solution was added to each well; then, the plate was re-incubated for 3–4 h. The fluorescence of the wells in each plate was monitored using a Spark 10 M spectrophotometer (Tecan Group Ltd., Mannedorf, Switzerland) with a 535 nm excitation wavelength and a 600 nm emission wavelength.

HeLa [3] = experiment: Antiproliferative assay (resazurin, 72 h); type: cell-based, human
Protocol: as §1, §2

Jurkat = experiment: Antiproliferative assay (resazurin, 72 h); type: cell-based, human; settings: for IC50: mean ± SE, 72 h; for fold increase in activity relative to 7ad: Jurkat cells
Protocol: as §1, §2

A549 [4] = experiment: Antiproliferative assay (resazurin, 72 h); type: cell-based, human
Protocol: as §1, §2

MDA-MB-231 = experiment: Antiproliferative assay (resazurin, 72 h); type: cell-based, human; settings: for IC50: mean ± SE, 72 h
Protocol: as §1, §2

Bovine brain tubulin [5] = experiment: Inhibition of tubulin polymerization; type: biochemical; settings: for IC50: tubulin at 10 μM, read-out: Tubulin Assembly IC50 ± SD
Protocol: (§3) Bovine brain tubulin was purified as described previously. To evaluate the effects of the compounds on tubulin assembly in vitro [35], varying concentrations were preincubated with 10 μM tubulin in 0.8 M monosodium glutamate (pH 6.6) at 30 °C and the reaction mixtures then cooled to 0 °C. After addition of GTP, the mixtures were transferred to 0 °C cuvettes in Beckman Coulter (Brea, CA, USA) DU-7400/DU-7500 recording spectrophotometers equipped with electronic temperature controllers and warmed to 30 °C, and the assembly of tubulin was observed turbidimetrically. […] Inhibition of colchicine binding to tubulin was measured as described before, except that the reaction mixtures contained 0.5 μM tubulin and 5 μM each of [^3H]colchicine and test compound. Only one DEAE-cellulose filter was used per sample, and filtration was by gravity.

Bovine brain tubulin [6] = experiment: Inhibition of [3H]colchicine binding to tubulin; settings: tubulin 0.5 µM, [3H]colchicine 5 µM, compound 5 µM
Protocol: as §3

[7] = system: A549, MDA-MB-231, HeLa, HT-29 and Jurkat cancer cell lines; experiment: Antiproliferative activity over the panel of cancer cell lines; type: cell-based, human; settings: for fold reduction in potency (vs 7y): MDA-MB-231 and HT-29 cells
Protocol: as §1, §2

[8] = mean over the five cancer cell lines, read-out: mean IC50 (antiproliferative activity)
[9] = Homo sapiens, HeLa, Table 1, mean ± SE
[10] = Homo sapiens, A549, Table 1, mean ± SE
[11] = Homo sapiens, MDA-MB-231, Table 1
[12] = Homo sapiens, all five lines, read-out: IC50 values against all five lines
[13] = Homo sapiens, range over the five tumor lines, read-out: IC50 values, range over the cell lines
[14] = read-out: IC50 (compared with 8u on A549)
[15] = Homo sapiens, HeLa, Table 2, mean ± SE
[16] = Homo sapiens, A549, Table 2, mean ± SE
[17] = Homo sapiens, MDA-MB-231, Table 2

COc1cc(-c2nc3nc(C)c(C(C)=O)c(-c4ccc([N+](=O)[O-])cc4)n3n2)cc(OC)c1OC [Compound 4]
IC50 (A549 [1]; read-out: IC50 A549): 1020 nM
inhibition of tubulin assembly (tubulin; at 10 μM): 40%
IC50 (HeLa [2]): 750 nM

C#Cc1cccc(Nc2cc(C)nc3nc(NCCCc4ccccc4)nn23)c1 [Compound 8v]
IC50 (HT-29; Table 2): 83 ± 20 nM
IC50 (HeLa [3]; Table 2, mean ± SE): 69 ± 10 nM
IC50 (Jurkat; Table 2): 160 ± 10 nM
IC50 (A549 [4]; Table 2, mean ± SE): 110 ± 30 nM
IC50 (MDA-MB-231; Table 2): 350 ± 10 nM
IC50 (Bovine brain tubulin [5]): 430 ± 50 nM
Colchicine Binding % Inhibition ± SD (Bovine brain tubulin [6]): 70 ± 3%

Cc1cc(Nc2ccc(Cl)cc2)n2nc(NCCCc3ccccc3)nc2n1 [Compound 8s]
IC50 (HT-29; Table 2): 53 ± 1 nM
IC50 (HeLa [3]; Table 2, mean ± SE): 48 ± 1 nM
IC50 (Jurkat; Table 2): 83 ± 20 nM
IC50 (A549 [4]; Table 2, mean ± SE): 70 ± 10 nM
IC50 (MDA-MB-231; Table 2): 200 ± 70 nM
fold more potent than CA-4, tubulin polymerization (Bovine brain tubulin [5]): about 2 fold
IC50 (Bovine brain tubulin [5]): 390 ± 10 nM
Colchicine Binding % Inhibition ± SD (Bovine brain tubulin [6]): 88 ± 3%
IC50 [7, 8]: 91 nM

COc1cc(Nc2cc(C)nc3nc(NCc4ccc5c(c4)OCO5)nn23)cc(OC)c1OC [Compound 7y, N^2-(Benzo[d][1,3]dioxol-5-ylmethyl)-5-methyl-N^7-(3,4,5-trimethoxyphenyl)-[1,2,4]triazolo [1,5-a]pyrimidine-2,7-diamine]
melting point: 190 to 192 °C
IC50 (HT-29; Homo sapiens, HT-29, Table 1): 170 ± 20 nM
IC50 (HeLa [3]; [9]): 110 ± 10 nM
IC50 (Jurkat; Homo sapiens, Jurkat, Table 1): 780 ± 90 nM
IC50 (A549 [4]; [10]): 660 ± 30 nM
IC50 (MDA-MB-231; [11]): 300 ± 20 nM
fold less active than CA-4, tubulin polymerization (Bovine brain tubulin [5]): 1.5 fold
IC50 (Bovine brain tubulin [5]): 1000 ± 200 nM
Colchicine Binding % Inhibition ± SD (Bovine brain tubulin [6]): 19 ± 05%
IC50 [7, 12]: < 1000 nM
IC50 [7, 13]: 110 to 780 nM
fold increase in activity vs 7i ([7]; all five cell lines): 6–28 fold

COc1cc(Nc2cc(C)nc3nc(NCc4ccc(C)cc4)nn23)cc(OC)c1OC [Compound 7p, 5-Methyl-N2-(4-methylbenzyl)-N7-(3,4,5-trimethoxyphenyl)-[1,2,4]triazolo [1,5-a]pyrimidine-2,7-diamine]
melting point: 146 to 148 °C
IC50 (HT-29; Homo sapiens, HT-29, Table 1): 110 ± 20 nM
IC50 (HeLa [3]; [9]): 60 ± 10 nM
IC50 (Jurkat; Homo sapiens, Jurkat, Table 1): 430 ± 1 nM
IC50 (A549 [4]; [10]): 420 ± 70 nM
IC50 (MDA-MB-231; [11]): 301 ± 40 nM
IC50 (Bovine brain tubulin [5]): 660 ± 100 nM
Colchicine Binding % Inhibition ± SD (Bovine brain tubulin [6]): 27 ± 3%
IC50 [7, 12]: < 1000 nM
IC50 [7, 13]: 60 to 427 nM
fold more potent than 7g ([7]; all cancer cell lines): 2–9 fold
fold less active than 7n ([7]; cell lines other than Jurkat): 2–4 fold
IC50 ([7]; range over the five tumor lines, read-out: IC50 values, range over the cell lines): 60 to 420 nM

CC(=O)O[C@@]12CO[C@@H]1C[C@H](O)[C@@]1(C)C(=O)[C@H](O)C3=C(C)[C@@H](OC(=O)[C@H](O)[C@@H](NC(=O)OC(C)(C)C)c4ccccc4)C[C@@](O)([C@@H](OC(=O)c4ccccc4)[C@H]21)C3(C)C [docetaxel]
IC50 (A549 [1]; [14]): 19.5 nM

COc1cccc2c1C(=O)c1c(O)c3c(c(O)c1C2=O)C[C@@](O)(C(=O)CO)C[C@@H]3O[C@H]1C[C@H](N)[C@H](O)[C@H](C)O1 [doxorubicin]
IC50 (A549 [1]; [14]): 11600 nM

Cc1cc(Nc2ccc(Br)cc2)n2nc(NCc3ccc4c(c3)OCO4)nc2n1 [Compound 8l, N^2-(Benzo[d][1,3]dioxol-5-ylmethyl)-N^7-(4-bromophenyl)-5-methyl-[1,2,4]triazolo [1,5-a]pyrimidine-2,7-diamine]
melting point: 182 to 184 °C
IC50 (HT-29; Homo sapiens, HT-29, Table 2): 420 ± 20 nM
IC50 (HeLa [3]; [15]): 220 ± 40 nM
IC50 (Jurkat; Homo sapiens, Jurkat, Table 2): 260 ± 50 nM
fold increase in activity relative to 7ad (Jurkat): 3-4 fold
IC50 (A549 [4]; [16]): 430 ± 180 nM
IC50 (MDA-MB-231; [17]): 1270 ± 450 nM
fold reduction in potency (vs 7y) [7]: 2–3 fold

Cc1cc(Nc2ccc(Br)cc2)n2nc(NCCCc3ccccc3)nc2n1 [Compound 8u]
IC50 (HT-29; Table 2): 83 ± 20 nM
IC50 (HeLa [3]; Table 2, mean ± SE): 22 ± 10 nM
IC50 (Jurkat; Table 2): 150 ± 14 nM
IC50 (A549 [4]; Table 2, mean ± SE): 48 ± 10 nM
IC50 (MDA-MB-231; Table 2): 120 ± 40 nM
fold more potent than CA-4, tubulin polymerization (Bovine brain tubulin [5]): about 2 fold
IC50 (Bovine brain tubulin [5]): 380 ± 20 nM
Colchicine Binding % Inhibition ± SD (Bovine brain tubulin [6]): 84 ± 2%
IC50 [7, 8]: 83 nM

COc1cc(Nc2cc(C)nc3nc(NCc4ccc(Cl)cc4)nn23)cc(OC)c1OC [Compound 7n, N^2-(4-Chlorobenzyl)-5-methyl-N^7-(3,4,5-trimethoxyphenyl)-[1,2,4]triazolo [1,5-a]pyrimidine-2,7-diamine]
melting point: 140 to 142 °C
IC50 (HT-29; Homo sapiens, HT-29, Table 1): 54 ± 10 nM
IC50 (HeLa [3]; [9]): 31 ± 10 nM
IC50 (Jurkat; Homo sapiens, Jurkat, Table 1): 320 ± 19 nM
IC50 (A549 [4]; [10]): 110 ± 22 nM
IC50 (MDA-MB-231; [11]): 190 ± 20 nM
fold reduction in activity vs 7l (MDA-MB-231; MDA-MB-231 cells): 3 fold
IC50 (Bovine brain tubulin [5]): 390 ± 60 nM
Colchicine Binding % Inhibition ± SD (Bovine brain tubulin [6]): 30 ± 0.3%
IC50 [7, 12]: < 1000 nM
IC50 [7, 13]: 31 to 323 nM
fold increase in antiproliferative activity vs 7l ([7]; four of the five cell lines): 17–60 fold

COc1ccc(-c2c(C(C)=O)c(C)nc3nc(-c4cc(OC)c(OC)c(OC)c4)nn23)cc1[N+](=O)[O-] [Compound 5]
IC50 (A549 [1]; read-out: IC50 A549): 16000 nM
IC50 (tubulin; read-out: IC50 antitubulin activity): 9900 nM
IC50 (HeLa [2]): 10000 nM

Cc1cc(Nc2ccc(F)c(Cl)c2)n2nc(NCc3ccc4c(c3)OCO4)nc2n1 [Compound 8f, N^2-(Benzo[d][1,3]dioxol-5-ylmethyl)-N^7-(3-chloro-4-fluorophenyl)-5-methyl-[1,2,4]triazolo [1,5-a]pyrimidine-2,7-diamine]
melting point: 186 to 188 °C
IC50 (HT-29; Homo sapiens, HT-29, Table 2): 300 ± 30 nM
IC50 (HeLa [3]; [15]): 160 ± 90 nM
IC50 (Jurkat; Homo sapiens, Jurkat, Table 2): 980 ± 60 nM
fold increase in activity relative to 7ad (Jurkat): 3-4 fold
IC50 (A549 [4]; [16]): 440 ± 50 nM
IC50 (MDA-MB-231; [17]): 700 ± 160 nM
fold reduction in potency (vs 7y) [7]: 2–3 fold

COc1cc(Nc2cc(C)nc3nc(Nc4ccc(Cl)cc4)nn23)cc(OC)c1OC [Compound 7f, N2-(4-Chlorophenyl)-5-methyl-N7-(3,4,5-trimethoxyphenyl)-[1,2,4]triazolo [1,5-a]pyrimidine-2,7-diamine]
melting point: 251 °C
IC50 (HT-29; Homo sapiens, HT-29, Table 1): 320 ± 40 nM
IC50 (HeLa [3]; [9]): 92 ± 10 nM
IC50 (Jurkat; Homo sapiens, Jurkat, Table 1): > 10000 nM
IC50 (A549 [4]; [10]): 290 ± 30 nM
IC50 (MDA-MB-231; [11]): 470 ± 45 nM
IC50 ([7]; Homo sapiens, four of the five cell lines, read-out: IC50 values against four of the five cell lines): < 1000 nM

Cc1cc(Nc2ccc(Cl)cc2)n2nc(NCc3ccc4c(c3)OCO4)nc2n1 [Compound 8i, N^2-(Benzo[d][1,3]dioxol-5-ylmethyl)-N^7-(4-chlorophenyl)-5-methyl-[1,2,4]triazolo [1,5-a]pyrimidine-2,7-diamine]
melting point: 156 to 158 °C
IC50 (HT-29; Homo sapiens, HT-29, Table 2): 600 ± 160 nM
IC50 (HeLa [3]; [15]): 190 ± 120 nM
IC50 (Jurkat; Homo sapiens, Jurkat, Table 2): 280 ± 50 nM
fold increase in activity relative to 7ad (Jurkat): 3-4 fold
IC50 (A549 [4]; [16]): 810 ± 220 nM
IC50 (MDA-MB-231; [17]): 940 ± 340 nM
fold reduction in potency (vs 7y) [7]: 2–3 fold

CC(=O)O[C@H]1C(=O)[C@@]2(C)[C@H]([C@H](OC(=O)c3ccccc3)[C@]3(O)C[C@H](OC(=O)[C@H](O)[C@@H](NC(=O)c4ccccc4)c4ccccc4)C(C)=C1C3(C)C)[C@]1(OC(C)=O)CO[C@@H]1C[C@@H]2O [paclitaxel]
IC50 (A549 [1]; [14]): 3.5 nM

COc1ccc(-c2nc3nc(C)c(C(C)=O)c(-c4cc(OC)c(OC)c(OC)c4)n3n2)cc1O [Compound 6]
fold more powerful than CA-4, tubulin polymerization (tubulin): 3 fold
IC50 (HeLa [2]): 60 nM

CO[C@H]1C(=O)[C@]2(C)[C@@H](OC)C[C@H]3OC[C@@]3(OC(C)=O)[C@H]2[C@H](OC(=O)c2ccccc2)[C@]2(O)C[C@H](OC(=O)[C@H](O)[C@@H](NC(=O)OC(C)(C)C)c3ccccc3)C(C)=C1C2(C)C [cabazitaxel]
IC50 (A549 [1]; [14]): 15 nM
